One compound from publication PMC4352280, “Bioactivity guided fractionation and hypolipidemic property of a novel HMG-CoA reductase inhibitor from Ficus virens Ait” (Lipids in Health and Disease, 2015) can be followed below.

What is called IC50 is the concentration at which inhibition is half-maximal.

The experiment concerns the target T1, HMG-CoA reductase (Homo sapiens, UniProt P04035).
T1 construct: gene HMGCR; catalytic domain of the human enzyme (recombinant GST fusion protein expressed in E. coli)
T1 sequence (P04035 426-888 limits assumed): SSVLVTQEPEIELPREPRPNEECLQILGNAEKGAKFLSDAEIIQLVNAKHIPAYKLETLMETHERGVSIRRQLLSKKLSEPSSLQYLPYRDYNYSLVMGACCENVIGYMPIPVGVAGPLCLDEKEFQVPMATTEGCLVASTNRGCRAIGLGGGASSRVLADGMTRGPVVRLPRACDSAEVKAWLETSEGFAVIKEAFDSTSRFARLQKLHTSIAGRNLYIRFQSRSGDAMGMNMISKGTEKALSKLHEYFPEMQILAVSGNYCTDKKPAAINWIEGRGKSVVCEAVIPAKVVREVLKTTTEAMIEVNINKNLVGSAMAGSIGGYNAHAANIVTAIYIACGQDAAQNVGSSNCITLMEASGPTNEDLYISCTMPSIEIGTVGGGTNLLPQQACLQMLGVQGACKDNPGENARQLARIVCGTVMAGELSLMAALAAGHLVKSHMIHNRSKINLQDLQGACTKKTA
Nature of the experiment: spectrophotometric HMG-CoA reductase assay; Lineweaver-Burk and Dixon plots. It counts as biochemical.

Consider `CCCCCCCCCCCCCCCCCCO[C@H]1O[C@H](CO[C@H]2O[C@H](CO)[C@@H](O)[C@H](O)[C@H]2O)[C@@H](O)[C@H](O)[C@H]1O` [F18, n-Octadecanyl-O-α-D-glucopyranosyl(6′ → 1″)-O-α-D-glucopyranoside], for which 0.141 µM corresponded to half-maximal inhibition (IC50).
